The record followed here is paper PMC6934184, “Selective DNA-PKcs inhibition extends the therapeutic index of localized radiotherapy and chemotherapy” (The Journal of Clinical Investigation, 2019).

In this experiment the target is T1, GRK1 (Homo sapiens, UniProt Q15835).
T1 construct: purchased Thermo Fisher Scientific (Life Technologies) SelectScreen
As to the kind of experiment: SelectScreen LanthaScreen. Type of experiment: binding. The following applies: read-out: % displacement. In outline: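 Percent values come from Thermo SelectScreen profiling of NU5455, combining activity and binding assays. CSF1R was run in Z'LYTE format at Km app ATP, and CAMK1 in Adapta format with ATP listed at 10.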
In general terms: Time-resolved FRET reads energy transfer from a long-lived donor to a nearby acceptor.

T1 sequence (Q15835 whole entry): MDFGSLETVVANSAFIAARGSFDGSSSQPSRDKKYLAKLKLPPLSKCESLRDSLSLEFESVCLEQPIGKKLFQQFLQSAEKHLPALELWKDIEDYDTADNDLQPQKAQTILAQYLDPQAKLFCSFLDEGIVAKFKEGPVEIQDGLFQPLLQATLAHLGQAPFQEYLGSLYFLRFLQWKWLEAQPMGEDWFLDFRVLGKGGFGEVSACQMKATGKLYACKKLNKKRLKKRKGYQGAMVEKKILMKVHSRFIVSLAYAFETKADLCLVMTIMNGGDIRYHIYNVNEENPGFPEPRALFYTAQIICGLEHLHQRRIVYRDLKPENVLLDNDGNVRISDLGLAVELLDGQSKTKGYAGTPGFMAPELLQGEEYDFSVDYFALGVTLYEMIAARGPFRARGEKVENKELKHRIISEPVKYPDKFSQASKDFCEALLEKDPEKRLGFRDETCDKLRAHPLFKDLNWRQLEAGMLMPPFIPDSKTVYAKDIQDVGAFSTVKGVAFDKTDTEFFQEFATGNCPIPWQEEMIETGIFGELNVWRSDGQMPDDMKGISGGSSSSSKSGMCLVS

With `CN(C(=O)CN1CCOCC1)c1ccc2sc3c(-c4cccc5c(=O)cc(N6CC7CCC(C6)O7)oc45)cccc3c2c1` [NU5455], the inhibition at 1 µM is 1.3%.
